# Measurements as given in ChEMBL document CHEMBL1145549, “Constrained NBMPR analogue synthesis, pharmacophore mapping and 3D-QSAR modeling of equilibrative nucleoside transporter 1 (ENT1) inhibitory activity” (Bioorg Med Chem, 2008).
# pIC50, pKi: −log10 of the molar value.
# Biological target: T1, Equilibrative nucleoside transporter 1 (Homo sapiens, UniProt Q99808)
# T1 sequence (Q99808 whole entry): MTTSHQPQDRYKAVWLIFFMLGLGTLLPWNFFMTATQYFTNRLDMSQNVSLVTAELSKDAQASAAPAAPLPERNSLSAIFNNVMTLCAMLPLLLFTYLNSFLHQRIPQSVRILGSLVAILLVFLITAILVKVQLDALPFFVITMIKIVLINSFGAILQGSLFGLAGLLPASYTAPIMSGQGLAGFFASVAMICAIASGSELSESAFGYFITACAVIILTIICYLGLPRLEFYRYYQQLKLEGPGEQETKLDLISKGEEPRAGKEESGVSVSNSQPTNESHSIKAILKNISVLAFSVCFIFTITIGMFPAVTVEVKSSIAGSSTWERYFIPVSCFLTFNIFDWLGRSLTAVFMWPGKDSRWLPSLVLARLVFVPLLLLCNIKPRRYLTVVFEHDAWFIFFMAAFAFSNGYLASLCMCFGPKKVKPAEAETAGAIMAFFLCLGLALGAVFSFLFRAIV
# Assay: Binding affinity to ENT1 transporter
row,pIC50,Structure (SMILES)
1,2.76,O=[N+]([O-])c1cccc2c1CN(c1ncnc3c1nc1n3[C@@H]3O[C@H](CO1)[C@@H](O)[C@H]3O)CC2
2,4.67,CC(C)(Sc1ncnc2c1ncn2[C@@H]1O[C@H](CO)[C@@H](O)[C@H]1O)c1ccccc1
3,5.81,OC[C@H]1O[C@@H](n2cnc3c(SCC4CCCCC4)ncnc32)[C@H](O)[C@@H]1O
4,3.61,O=[N+]([O-])c1ccc2c(c1)CCN(c1ncnc3c1nc1n3[C@@H]3O[C@H](CO1)[C@@H](O)[C@H]3O)C2
5,5.68,OC[C@H]1O[C@@H](n2cnc3c(OCc4ccccc4)ncnc32)[C@H](O)[C@@H]1O
6,3.04,Nc1ncnc2c1ncn2[C@@H]1O[C@H](COCCOCCNc2ncnc3c2ncn3[C@@H]2O[C@H](CO)[C@@H](O)[C@H]2O)[C@@H](O)[C@H]1O
7,7.56,O=[N+]([O-])c1ccc(CNc2ncnc3c2ncn3[C@@H]2O[C@H](CO)[C@@H](O)[C@H]2O)cc1
8,3.59,CC(C)Nc1ncnc2c1ncn2[C@@H]1O[C@H](CO)[C@@H](O)[C@H]1O
9,2.13,O=[N+]([O-])c1cccc2c1CCN(c1ncnc3c1nc1n3[C@@H]3O[C@H](CO1)[C@@H](O)[C@H]3O)C2
10,4.86,C=CCSc1ncnc2c1ncn2[C@@H]1O[C@H](CO)[C@@H](O)[C@H]1O
11,8.26,O=[N+]([O-])c1ccc2c(c1)CN(c1ncnc3c1ncn3[C@@H]1O[C@H](CO)[C@@H](O)[C@H]1O)CC2
12,5.44,O=[N+]([O-])c1cccc2c1CN(c1ncnc3c1ncn3[C@@H]1O[C@H](CO)[C@@H](O)[C@H]1O)CC2
13,6.74,O=[N+]([O-])c1ccc2c(c1)CCN(c1ncnc3c1ncn3[C@@H]1O[C@H](CO)[C@@H](O)[C@H]1O)C2
14,7.67,Nc1nc(SCc2ccc([N+](=O)[O-])cc2)c2ncn([C@@H]3O[C@H](CO)[C@@H](O)[C@H]3O)c2n1
15,4.87,CCCCCNc1ncnc2c1ncn2[C@@H]1O[C@H](CO)[C@@H](O)[C@H]1O
16,4.24,CCSc1ncnc2c1ncn2[C@@H]1O[C@H](CO)[C@@H](O)[C@H]1O
17,4.75,OC[C@H]1O[C@@H](n2cnc3c(NCc4cccs4)ncnc32)[C@H](O)[C@@H]1O
18,5.52,O=[N+]([O-])c1cccc2c1CCN(c1ncnc3c1ncn3[C@@H]1O[C@H](CO)[C@@H](O)[C@H]1O)C2
19,5.20,OC[C@H]1O[C@@H](n2cnc3c(SC4CCCCC4)ncnc32)[C@H](O)[C@@H]1O
20,6.51,CN(Cc1ccc([N+](=O)[O-])cc1)c1ncnc2c1ncn2[C@@H]1O[C@H](CO)[C@@H](O)[C@H]1O
21,5.74,OC[C@H]1O[C@@H](n2cnc3c(N4CCc5ccccc5C4)ncnc32)[C@H](O)[C@@H]1O
22,6.48,O=[N+]([O-])c1ccc2c(c1)CN(c1ncnc3c1nc1n3[C@@H]3O[C@H](CO1)[C@@H](O)[C@H]3O)CC2
23,5.77,OC[C@H]1O[C@@H](n2cnc3c(SCc4ccccc4)ncnc32)[C@H](O)[C@@H]1O [6-BENZYLTHIOINOSINE]
24,3.64,Nc1ncnc2c1c(I)cn2[C@@H]1O[C@H](CO)[C@@H](O)[C@H]1O [IODOTUBERCIDIN]
25,4.44,OC[C@H]1O[C@@H](n2cnc3c(NCc4ccco4)ncnc32)[C@H](O)[C@@H]1O [KINETIN RIBOSIDE]
26,4.97,OC[C@H]1O[C@@H](n2cnc3c(NCc4ccccc4)ncnc32)[C@H](O)[C@@H]1O [N6-BENZYLADENOSINE]
27,4.49,OC[C@H]1O[C@@H](n2cnc3c(Nc4ccccc4)ncnc32)[C@H](O)[C@@H]1O [N6-PHENYLADENOSINE]

# Biological target: T1, Equilibrative nucleoside transporter 1
# Assay: Displacement of 5-(SAENTA)-X8-fluorescein from human ENT1 transporter in human K562 cells
# Type: cell-based
row,pKi,Structure (SMILES)
1,< 6.00,O=[N+]([O-])c1cccc2c1CN(c1ncnc3c1nc1n3[C@@H]3O[C@H](CO1)[C@@H](O)[C@H]3O)CC2
2,< 6.00,O=[N+]([O-])c1ccc2c(c1)CCN(c1ncnc3c1nc1n3[C@@H]3O[C@H](CO1)[C@@H](O)[C@H]3O)C2
3,< 6.00,O=[N+]([O-])c1cccc2c1CCN(c1ncnc3c1nc1n3[C@@H]3O[C@H](CO1)[C@@H](O)[C@H]3O)C2
4,7.72,O=[N+]([O-])c1ccc2c(c1)CN(c1ncnc3c1nc1n3[C@@H]3O[C@H](CO1)[C@@H](O)[C@H]3O)CC2
